The record followed here is PubChem BioAssay (NCI).

The structures appear in SMILES notation.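 A five-concentration, 48-hour dose response in 96-well plates underlies each endpoint, interpolated linearly between surrounding concentrations. TGI is the concentration that stops growth completely.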

Some test systems named below: HS 578T breast; BT-549 breast; T-47D breast; COLO 205 colon; A549 NSCLC; HL-60(TB) leukemia; MDA-MB-231 breast; OVCAR-4 ovarian; RXF 393 renal; CCRF-CEM leukemia.
Common to all, as to experiment: NCI anticancer screen, dose series, 48 h

In the case of `COc1cc(Oc2nc3ccccc3nc2C(=O)O)cc(OC)c1OC`, the TGI in the assay on HS 578T breast, in the assay with BT-549 breast, in the assay on T-47D breast, in the assay on COLO 205 colon, in the assay on A549 NSCLC and with HL-60(TB) leukemia was over 100 µM each time. In addition, the TGI in the assay with MDA-MB-231 breast, with OVCAR-4 ovarian, with RXF 393 renal and in the assay on CCRF-CEM leukemia was over 100 µM in each case.

As to `[O-][n+]1onc2c3nn(-c4ccccc4)nc3ccc21`, the TGI in the assay on HS 578T breast was over 88.6 µM; with BT-549 breast it was over 100 µM; in the assay on T-47D breast, 32.4 µM; with COLO 205 colon, over 100 µM; with A549 NSCLC, over 100 µM; in the assay on HL-60(TB) leukemia it was 8.68 µM. For the same compound, the TGI in the assay on MDA-MB-231 breast, in the assay with OVCAR-4 ovarian, in the assay with RXF 393 renal and with CCRF-CEM leukemia was over 100 µM each time.

On to `O=[N+]([O-])c1ccc2c(c1)nc(Cc1ccccc1)n2C[C@@H]1CCCN2CCCCC12` (stereo partly drawn), for which the TGI is over 100 µM with HS 578T breast; over 100 µM in the assay on BT-549 breast; over 100 µM in the assay on T-47D breast; 37.4 µM in the assay with COLO 205 colon; over 100 µM with A549 NSCLC; 95.1 µM in the assay with MDA-MB-231 breast. The results for the TGI in the assay on OVCAR-4 ovarian, with RXF 393 renal and with CCRF-CEM leukemia were over 100 µM, 59.6 µM and 50.2 µM, respectively.

As for `Cc1cc(NS(=O)(=O)c2ccc(NC(=O)c3ccc4nc5ccccc5c(Nc5ccc(S(=O)(=O)N=C(N)N)cc5)c4c3)cc2)no1`, the TGI with HS 578T breast came out at 72.7 µM; with BT-549 breast, 46 µM; with T-47D breast, 34.4 µM; with COLO 205 colon, 38.5 µM; in the assay with A549 NSCLC it was 31.4 µM; in the assay with HL-60(TB) leukemia, 46.2 µM. The TGI stood at 29.4 µM in the assay on MDA-MB-231 breast, 31.4 µM with OVCAR-4 ovarian, 31.1 µM in the assay on RXF 393 renal and 34.3 µM in the assay with CCRF-CEM leukemia.

On to `CC(=O)N1N=C(c2c(O)ccc3ccccc23)CC1C(=O)c1ccco1` (stereo not drawn), for which the TGI in the assay with HS 578T breast was over 100 µM; in the assay on BT-549 breast, 45 µM; in the assay with T-47D breast, over 100 µM; in the assay on COLO 205 colon, 86 µM; in the assay with A549 NSCLC, over 100 µM; in the assay on MDA-MB-231 breast, 74.6 µM. The TGI in the assay on OVCAR-4 ovarian was over 100 µM; in the assay with RXF 393 renal it was over 100 µM; in the assay with CCRF-CEM leukemia it was 57 µM.

On to `CN(C)CCCn1c(Cc2ccccc2)nc2cc(C(F)(F)F)ccc21`, for which the TGI in the assay with HS 578T breast was over 100 µM; in the assay on BT-549 breast it was 92.4 µM; in the assay on T-47D breast it was 50.7 µM; in the assay on COLO 205 colon it was 34.7 µM; in the assay with A549 NSCLC it was 31.8 µM; in the assay on MDA-MB-231 breast, 73.3 µM. Besides, the TGI was over 100 µM in the assay on OVCAR-4 ovarian, 67.8 µM in the assay with RXF 393 renal and 40.3 µM with CCRF-CEM leukemia.

With `O=C(O)CC(NC(=O)Nc1ccc([N+](=O)[O-])cc1)C(=O)Nc1ccc([N+](=O)[O-])cc1` (stereo not drawn), the TGI with HS 578T breast, in the assay on BT-549 breast, with T-47D breast, with COLO 205 colon, with A549 NSCLC and in the assay on MDA-MB-231 breast was over 100 µM each time. The TGI in the assay with OVCAR-4 ovarian, in the assay on RXF 393 renal and in the assay with CCRF-CEM leukemia was over 100 µM in each case.

Regarding `COc1cc(C2c3cc4c(cc3C(O)C3CCC(=O)N23)OCO4)cc(OC)c1OC` (stereo not drawn), the TGI with HS 578T breast is over 100 µM; with BT-549 breast it was 66.1 µM; with T-47D breast it was over 100 µM; in the assay on COLO 205 colon it was over 100 µM; with A549 NSCLC, over 100 µM; in the assay with HL-60(TB) leukemia, 55.1 µM. Moreover, the TGI in the assay with MDA-MB-231 breast and in the assay with CCRF-CEM leukemia was over 100 µM throughout.

As to `CC1CN=C(Nc2cccc(C(F)(F)F)c2)S1` (stereo not drawn), the TGI in the assay on HS 578T breast is over 100 µM; with BT-549 breast it was over 100 µM; in the assay with T-47D breast it was over 100 µM; in the assay with HL-60(TB) leukemia, 77 µM; in the assay on MDA-MB-231 breast it was over 100 µM; in the assay on RXF 393 renal, over 100 µM. Moreover, the TGI in the assay on CCRF-CEM leukemia was over 100 µM.

Regarding `CCCCC/C=C1/CC(CO)(COC(=O)CC(C(C)C)C(C)C)OC1=O` (stereo not drawn), the TGI in the assay on HS 578T breast is 9.09 µM; in the assay with BT-549 breast, 28.5 µM; in the assay with T-47D breast it was 40.5 µM; in the assay on COLO 205 colon, 14.7 µM; in the assay with A549 NSCLC it was 27.1 µM; with MDA-MB-231 breast, 32.5 µM. Besides, the TGI with OVCAR-4 ovarian is 41.8 µM; in the assay on RXF 393 renal, 29.8 µM; in the assay with CCRF-CEM leukemia it was over 100 µM.

Turning to `CCOC(=O)C(=[N+]=[N-])C(=O)C[N+]12CCN(CC1)CC2`, the TGI with HS 578T breast, with BT-549 breast, with T-47D breast, in the assay with COLO 205 colon, in the assay on A549 NSCLC and in the assay on MDA-MB-231 breast was over 100 µM in each case. The TGI in the assay on OVCAR-4 ovarian, in the assay with RXF 393 renal and with CCRF-CEM leukemia was over 100 µM throughout.

Regarding `CC(C)OC(=O)c1ccc(NCC2=CC(=O)C=CC2=O)cc1Cl`, the TGI was over 100 µM in the assay with HS 578T breast; 9.92 µM with BT-549 breast; 7.85 µM in the assay on T-47D breast; 21.3 µM in the assay with COLO 205 colon; over 100 µM in the assay with A549 NSCLC; over 21.8 µM in the assay on HL-60(TB) leukemia. The TGI came to 47.6 µM in the assay with MDA-MB-231 breast, 32 µM with OVCAR-4 ovarian and 47.5 µM in the assay with RXF 393 renal.

Regarding `Cc1cc(O)c(C(C)C)cc1NC(=O)Nc1cccc2ccccc12`, the TGI in the assay with HS 578T breast is 62.6 µM; in the assay with BT-549 breast it was 36.1 µM; with T-47D breast, over 100 µM; in the assay with A549 NSCLC, 45.4 µM; in the assay with HL-60(TB) leukemia, over 100 µM; in the assay on MDA-MB-231 breast it was 31.7 µM. For the same compound, the TGI was determined as 24.4 µM in the assay on OVCAR-4 ovarian and 29.4 µM in the assay with RXF 393 renal.

`Cc1oc2nc1C(=O)NCc1nc(cs1)C(=O)N[C@H](C(C)C)c1nc(cs1)C(=O)N[C@H]2C`: the TGI in the assay on HS 578T breast, in the assay with BT-549 breast, with T-47D breast, in the assay with COLO 205 colon, in the assay on A549 NSCLC and with MDA-MB-231 breast was over 100 µM in each case. For the same compound, the TGI in the assay with OVCAR-4 ovarian, in the assay on RXF 393 renal and with CCRF-CEM leukemia was over 100 µM each time.

In the case of `CC(=O)Nc1ccc2c(C(=O)O)c(C)c(=O)[nH]c2n1`, the TGI in the assay with HS 578T breast, in the assay with BT-549 breast, in the assay with T-47D breast, in the assay with COLO 205 colon, in the assay on A549 NSCLC and in the assay on HL-60(TB) leukemia was over 100 µM in each case. Besides, the TGI in the assay with MDA-MB-231 breast and in the assay on RXF 393 renal was over 100 µM throughout.
